Results published in US4272437A, “Antibacterial agents, and 4-thio azetidinone intermediates” (priority 1979, dated 1981).
Converted amounts (≈) assume the structure as drawn. Where a name gives a salt, the structure may show the parent alone. Read-outs that look alike come from different tables or passages of the source.

Columns and labels:
Pr. mirabilis A-9900 = assay: MIC, tube dilution, Proteus mirabilis A9900; format: cell-based; details: Proteus mirabilis, A9900, Proteus mirabilis A9900; overnight 37° C.; read-out: Minimum Inhibitory Concentration (M.I.C.)
Excerpt: (§1) Representative compounds of the present invention were subjected to in vitro antibiotic screening against a variety of microorganisms.

Str. pyogenes A-9604 = assay: MIC, tube dilution, Streptococcus pyogenes A9604; format: cell-based; details: overnight 37° C., Nutrient Broth; for MIC: Streptococcus pyogenes, A9604, Str. pyogenes A9604, read-out: Minimum Inhibitory Concentration (M.I.C.)
Excerpt: as §1

E. coli A-15119 = assay: MIC, tube dilution, Escherichia coli A15119; format: cell-based; details: Escherichia coli, A15119, E. coli A15119; overnight 37° C.; read-out: Minimum Inhibitory Concentration (M.I.C.)
Excerpt: as §1

Proteus vulgaris A21559 = assay: MIC, tube dilution, Proteus vulgaris A21559; format: cell-based; details: Proteus vulgaris
Excerpt: as §1

Staph. aureus A-9537 = assay: MIC, tube dilution, Staphylococcus aureus A9537; format: cell-based; details: overnight 37° C., Nutrient Broth; for MIC: Staphylococcus aureus, A9537, Staph. aureus A9537, read-out: Minimum Inhibitory Concentration (M.I.C.)
Excerpt: as §1

Ser. marcescens A-20019 = assay: MIC, tube dilution, Serratia marcescens A20019; format: cell-based; details: Serratia marcescens, A20019, Serratia marcescens A20019; overnight 37° C.; read-out: Minimum Inhibitory Concentration (M.I.C.)
Excerpt: as §1

[1] = system: Staph. aureus (Pen-Res) A-9606; assay: MIC, tube dilution, Staphylococcus aureus A9606 (Pen-Res); format: cell-based; details: Staphylococcus aureus, overnight 37° C.
Excerpt: as §1

[2] = system: Staph. aureus A-9537 and 50% serum; assay: MIC, tube dilution, Staph. aureus A9537 + 50% serum; format: cell-based, Staphylococcus aureus; details: Staphylococcus aureus, overnight 37° C., read-out: Minimum Inhibitory Concentration (M.I.C.)
Excerpt: as §1

E. coli A-20341-1 = assay: MIC, tube dilution, Escherichia coli A20341-1; format: cell-based
Excerpt: as §1

Ps. aeruginosa A-21213 = assay: MIC, tube dilution, Pseudomonas aeruginosa A21213; format: cell-based; details: overnight 37° C., read-out: Minimum Inhibitory Concentration (M.I.C.)
Excerpt: as §1

Str. faecalis A-20688 = assay: MIC, tube dilution, Streptococcus faecalis A20688; format: cell-based; details: Enterococcus faecalis, A20688, Str. faecalis A20688; overnight 37° C.; read-out: Minimum Inhibitory Concentration (M.I.C.)
Excerpt: as §1

Proteus rettgeri A21203 = assay: MIC, tube dilution, Proteus rettgeri A21203; format: cell-based; details: Providencia rettgeri, overnight 37° C., read-out: Minimum Inhibitory Concentration (M.I.C.)
Excerpt: as §1

Ps. aeruginosa A-9843A = assay: MIC, tube dilution, Pseudomonas aeruginosa A9843A; format: cell-based; details: Pseudomonas aeruginosa, A9843A, read-out: Minimum Inhibitory Concentration (M.I.C.), Pseudomonas aeruginosa A9843A; overnight 37° C.
Excerpt: as §1

Pr. morganii A-15153 = assay: MIC, tube dilution, Proteus morganii A15153; format: cell-based; details: Morganella morganii, A15153, Proteus morganii A15153; overnight 37° C.; read-out: Minimum Inhibitory Concentration (M.I.C.)
Excerpt: as §1

K. pneumoniae A-15130 = assay: MIC, tube dilution, Klebsiella pneumoniae A15130; format: cell-based; details: Klebsiella pneumoniae, A15130, K. pneumoniae A15130; overnight 37° C.; read-out: Minimum Inhibitory Concentration (M.I.C.)
Excerpt: as §1

Str. pneumoniae A-9585 = assay: MIC, tube dilution, Streptococcus pneumoniae A9585; format: cell-based; details: Streptococcus pneumoniae, A9585, Str. pneumoniae A9585; overnight 37° C., Nutrient Broth; read-out: Minimum Inhibitory Concentration (M.I.C.)
Excerpt: as §1

[3] = system: Staph. aureus (Meth-Res) A-15097; assay: MIC, tube dilution, Staphylococcus aureus A15097 (Meth-Res); format: cell-based; details: overnight 37° C.; for MIC: Staphylococcus aureus
Excerpt: as §1

Ent. cloacae A-9659 = assay: MIC, tube dilution, Enterobacter cloacae A9659; format: cell-based; details: Enterobacter cloacae, A9659, Enterobacter cloacae A9659; overnight 37° C.; read-out: Minimum Inhibitory Concentration (M.I.C.)
Excerpt: as §1

[4] = system: Klebsiella species A20468; assay: MIC, tube dilution, Klebsiella species A20468; format: cell-based; details: Klebsiella species (K. pneumoniae) A20468; overnight 37° C.; read-out: Minimum Inhibitory Concentration (M.I.C.)
Excerpt: as §1

Ent. cloacae A-9656 = assay: MIC, tube dilution, Enterobacter cloacae A9656; format: cell-based; details: overnight 37° C., read-out: Minimum Inhibitory Concentration (M.I.C.)
Excerpt: as §1

[5] = A21559, Proteus vulgaris A21559, overnight 37° C., read-out: Minimum Inhibitory Concentration (M.I.C.)
[6] = Staph. aureus A9606 (Pen-Res), read-out: Minimum Inhibitory Concentration (M.I.C.)
[7] = Escherichia coli, A203411, E. coli A20341-1; overnight 37° C.; read-out: Minimum Inhibitory Concentration (M.I.C.)
[8] = Pseudomonas aeruginosa, A21213, Pseudomonas aeruginosa A21213
[9] = A21203, Proteus rettgeri A21203
[10] = Staph. aureus A15097 (Meth-Res), read-out: Minimum Inhibitory Concentration (M.I.C.)
[11] = Enterobacter cloacae, A9656, Enterobacter cloacae A9656
[12] = A21559, read-out: Minimum Inhibitory Concentration (M.I.C.)
[13] = read-out: Minimum Inhibitory Concentration (M.I.C.), Staph. aureus A9606 (Pen-Res)
[14] = Escherichia coli, A203411; E. coli A20341-1; overnight 37° C.; read-out: Minimum Inhibitory Concentration (M.I.C.)
[15] = read-out: Minimum Inhibitory Concentration (M.I.C.), Staph. aureus A15097 (Meth-Res)

Row | Structure (SMILES) | MIC (Pr. mirabilis A-9900) [µg/mL] | MIC (Str. pyogenes A-9604) [µg/mL] | MIC (E. coli A-15119) [µg/mL] | MIC (Proteus vulgaris A21559; [5]) [µg/mL] | MIC (Staph. aureus A-9537) [µg/mL] | MIC (Ser. marcescens A-20019) [µg/mL] | MIC [1, 6] [µg/mL] | MIC [2] [µg/mL] | MIC (E. coli A-20341-1; [7]) [µg/mL] | MIC (Str. faecalis A-20688) [µg/mL] | MIC (Proteus rettgeri A21203; [9]) [µg/mL] | MIC (Ps. aeruginosa A-9843A) [µg/mL] | MIC (Pr. morganii A-15153) [µg/mL] | MIC (K. pneumoniae A-15130) [µg/mL] | MIC (Str. pneumoniae A-9585) [µg/mL] | MIC [3, 10] [µg/mL] | MIC (Ent. cloacae A-9659) [µg/mL] | MIC [4] [µg/mL] | MIC (Ent. cloacae A-9656; [11]) [µg/mL] | MIC (Ps. aeruginosa A-21213; Pseudomonas aeruginosa A21213) [µg/mL] | also measured
1 | C[C@@H](O)[C@H]1C(=O)N2C(C(=O)O)=C(COCCN)S[C@H]12 (relative stereo) [66,96] | 1 (≈ 3.47 µM) | 0.03 (≈ 0.104 µM) | 0.5 (≈ 1.73 µM) | 1 (≈ 3.47 µM) | 0.06 (≈ 0.208 µM) | 2 (≈ 6.94 µM) | 0.25 (≈ 0.867 µM) | 0.5 | 0.5 (≈ 1.73 µM) | 4 (≈ 13.9 µM) | 2 (≈ 6.94 µM) | 16 (≈ 55.5 µM) | 4 (≈ 13.9 µM) | 2 (≈ 6.94 µM) | 0.03 (≈ 0.104 µM) | 1 (≈ 3.47 µM) | 8 (≈ 27.7 µM) | 2 (≈ 6.94 µM) | 2 (≈ 6.94 µM) |  | MIC (Ps. aeruginosa A-21213; [8]): 8 µg/mL (≈ 27.7 µM)
2 | CC1=C(C(=O)O)N2C(=O)[C@@H]([C@@H](C)O)[C@H]2S1 (relative stereo) [Example 58, (1'R,5R,6R) and (1'S,5S,6S) 6-(1'-Hydroxy-1'-ethyl)-2-methylpenem-3-carboxylic Acid (isomer D)] |  |  |  |  |  |  |  |  |  |  |  |  |  |  |  |  |  |  |  |  | Minimum Inhibitory Concentration (M.I.C.) (Str. pyogenes A-9604; Str. pyogenes A9604): 2 µg/mL; Minimum Inhibitory Concentration (M.I.C.) (Staph. aureus A-9537; Staph. aureus A9537): 4 µg/mL; Minimum Inhibitory Concentration (M.I.C.) ([3]; Staph. aureus A15097 (Meth-Res)): 16 µg/mL
3 | CC1=C(C(=O)O)N2C(=O)[C@H]([C@H](C)O)[C@H]2S1 (relative stereo) [Example 59, (1'S,5R,6S and 1'R,5S,6R) 6-(1'-Hydroxy-1'-ethyl)-2-methyl penem-3-carboxylic acid (isomer C)] | > 125 | 125 (≈ 545 µM) | > 125 |  | > 125 | > 125 |  | > 63 |  | > 125 |  | > 125 | > 125 | > 125 | 32 (≈ 140 µM) |  | > 125 | > 125 |  | > 125 | MIC (Proteus vulgaris A21559; [12]): > 125 µg/mL; MIC [1, 13]: > 125 µg/mL; MIC (E. coli A-20341-1; [14]): > 125 µg/mL; MIC (Proteus rettgeri A21203; Proteus rettgeri A21203): > 125 µg/mL; MIC [3, 15]: > 125 µg/mL; MIC (Ent. cloacae A-9656; Enterobacter cloacae A9656): > 125 µg/mL
4 | CC1=C(C(=O)O)N2C(=O)[C@@H]([C@H](C)O)[C@H]2S1 (relative stereo) [Example 61, (1'S,5R,6R and 1'R,5S,6S) 6-(1'-Hydroxy-1'-ethyl)-2-methylpenem-3-carboxylic Acid (isomer A)] | 2 (≈ 8.72 µM) | 0.06 (≈ 0.262 µM) | 2 (≈ 8.72 µM) | 4 (≈ 17.4 µM) | 0.5 (≈ 2.18 µM) | 8 (≈ 34.9 µM) | 1 (≈ 4.36 µM) | 4 | 8 (≈ 34.9 µM) | 2 (≈ 8.72 µM) | 2 (≈ 8.72 µM) | 63 (≈ 275 µM) | 8 (≈ 34.9 µM) | 8 (≈ 34.9 µM) | 0.03 (≈ 0.131 µM) | 2 (≈ 8.72 µM) | 8 (≈ 34.9 µM) | 63 (≈ 275 µM) | 32 (≈ 140 µM) |  | 
5 | CC1=C(C(=O)O)N2C(=O)[C@H]([C@@H](C)N)[C@H]2S1 (relative stereo) [Example 70, (1'R,5R,6S and 1'S,5S,6R) 6-1'Amino-1'-ethyl)-2-methylpenem-3-carboxylic Acid] | > 63 | > 63 | > 63 | > 63 | > 63 | > 63 | > 63 | > 32 | > 63 | > 63 | > 63 | > 63 | > 63 | > 63 | > 63 | > 63 | > 63 | > 63 | > 63 |  | MIC (Ps. aeruginosa A-21213; [8]): > 63 µg/mL
6 | CC1=C(C(=O)O)N2C(=O)[C@H](CNC=O)[C@H]2S1 (relative stereo) [Example 92, 6-Formamidomethyl-2-methylpenem-3-carboxylic acid, sodium and potassium salts] | 32 | 0.5 | 32 | 32 | 8 | 63 | 16 | 32 | 32 | > 63 | 32 | > 63 | 63 | 63 | 0.5 | 32 | 63 | 63 | 63 |  | MIC (Ps. aeruginosa A-21213; [8]): > 63 µg/mL
7 | CC[C@H](O)[C@H]1C(=O)N2C(C(=O)O)=C(C)S[C@H]12 (relative stereo) [Example 93, (1'S,5R,6S, and 1'R,5S,6R) 6-(1'--Hydroxy-1'-propyl)-2-methylpenem-3-carboxylic acid, sodium salt (isomer C)] | > 125 | > 125 | > 125 |  | > 125 | > 125 |  | > 63 |  | > 125 |  | > 125 | > 125 | > 125 | > 125 |  | > 125 | > 125 |  | > 125 | MIC (Proteus vulgaris A21559; [12]): > 125 µg/mL; MIC [1, 13]: > 125 µg/mL; MIC (E. coli A-20341-1; [14]): > 125 µg/mL; MIC (Proteus rettgeri A21203; Proteus rettgeri A21203): > 125 µg/mL; MIC [3, 15]: > 125 µg/mL; MIC (Ent. cloacae A-9656; Enterobacter cloacae A9656): > 125 µg/mL
8 | O=C(O)C1=C(C2CC2)SC2CC(=O)N12 (stereo not drawn) [Example 14, 2-Cyclopropylpenem-3-carboxylic Acid] | 4 (≈ 18.9 µM) | 0.25 (≈ 1.18 µM) | 4 (≈ 18.9 µM) |  | 0.13 (≈ 0.615 µM) | 8 (≈ 37.9 µM) |  | 16 | 63 (≈ 298 µM) | 63 (≈ 298 µM) | 4 (≈ 18.9 µM) | 125 (≈ 592 µM) | 16 (≈ 75.7 µM) | 16 (≈ 75.7 µM) | 0.06 (≈ 0.284 µM) | 2 (≈ 9.47 µM) | 16 (≈ 75.7 µM) | > 125 | 16 (≈ 75.7 µM) | 125 (≈ 592 µM) | 
9 | O=C([O-])C1=C(CO)S[C@@H]2CC(=O)N12.[Na+] [Preparation 20, Sodium 2-Hydroxymethylpenem-3-carboxylate] | 16 | 1 | 16 |  | 2 | 32 |  | 16 |  | > 125 |  | 125 | 32 | 63 | 0.25 |  | 63 | > 125 |  | > 125 | MIC [1, 13]: 4 µg/mL; MIC (E. coli A-20341-1; [14]): 63 µg/mL; MIC (Proteus rettgeri A21203; Proteus rettgeri A21203): 32 µg/mL; MIC [3, 15]: 8 µg/mL; MIC (Ent. cloacae A-9656; Enterobacter cloacae A9656): 32 µg/mL
